The record followed here is patent US8003660B2, “Modulators of muscarinic receptors” (Vertex Pharmaceuticals Incorporated, priority 2006, dated 2011).

pEC50: −log10 of the molar value.

What all share (type): cell-based
One assay has as its target T1, M2 muscarinic receptor (Homo sapiens, UniProt P08172).
T1 construct: expressed in transfected cells; host or cells: CHO (M2-CHO)
T1 sequence (P08172 1-466): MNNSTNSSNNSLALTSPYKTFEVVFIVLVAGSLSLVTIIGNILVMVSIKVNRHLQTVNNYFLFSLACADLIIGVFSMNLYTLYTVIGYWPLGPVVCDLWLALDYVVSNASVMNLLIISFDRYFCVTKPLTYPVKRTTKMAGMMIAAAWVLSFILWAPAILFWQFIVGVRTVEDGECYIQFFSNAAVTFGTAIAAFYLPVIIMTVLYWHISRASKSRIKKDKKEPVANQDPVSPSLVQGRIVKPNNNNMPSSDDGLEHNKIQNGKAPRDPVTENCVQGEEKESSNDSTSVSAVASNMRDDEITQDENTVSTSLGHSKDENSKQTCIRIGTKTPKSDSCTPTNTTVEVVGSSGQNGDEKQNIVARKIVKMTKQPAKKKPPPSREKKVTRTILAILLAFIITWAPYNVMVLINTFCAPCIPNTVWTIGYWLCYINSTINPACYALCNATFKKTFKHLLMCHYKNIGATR
In words: Functional mobilization of intracellular calcium (FLIPR) in CHO cells expressing M2. As to conditions: for pEC50: CHO cells expressing M2, FLIPR calcium; for Emax: CHO, 100% = maximum response obtained with the Carbachol control, read-out: M2 Efficacy. A digest of the protocol: (§1)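 Calcium flux is read on FLIPR over 60 sec at 488/540 nm in muscarinic-receptor CHO lines. Antagonist mode adds carbachol at EC80 after 15 min compound preincubation or with simultaneous co-application. Agonist mode adds compound alone. Cells carry Fluo-3 or Calcium 3 dye in probenecid-containing pH 7.4 buffer, 0.5% DMSO final.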

A further assay has as its target T2, M4 muscarinic receptor (Homo sapiens, UniProt P08173).
T2 construct: expressed in transfected cells; host or cells: CHO (M4-CHO)
T2 sequence (P08173 1-479): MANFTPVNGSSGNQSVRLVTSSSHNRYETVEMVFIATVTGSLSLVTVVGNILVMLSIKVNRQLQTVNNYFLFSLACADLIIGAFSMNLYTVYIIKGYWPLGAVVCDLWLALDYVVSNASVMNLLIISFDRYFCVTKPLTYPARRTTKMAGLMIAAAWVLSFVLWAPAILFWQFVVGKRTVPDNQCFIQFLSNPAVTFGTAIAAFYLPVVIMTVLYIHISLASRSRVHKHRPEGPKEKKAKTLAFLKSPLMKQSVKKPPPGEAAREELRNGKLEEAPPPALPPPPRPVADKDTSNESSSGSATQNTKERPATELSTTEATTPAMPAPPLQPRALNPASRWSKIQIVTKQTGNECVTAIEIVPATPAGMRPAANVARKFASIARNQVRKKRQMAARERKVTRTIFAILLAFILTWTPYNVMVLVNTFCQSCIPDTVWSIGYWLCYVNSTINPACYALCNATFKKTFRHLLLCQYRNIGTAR
In words: Functional mobilization of intracellular calcium (FLIPR) in CHO cells expressing M4. As to conditions: for pEC50: CHO cells expressing M4, FLIPR calcium; for Emax: CHO, 100% = maximum response obtained with the Carbachol control, read-out: M4 Efficacy. In outline:
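Read-out: FLIPR fluorescence (ex 488, em 540 nm) over 60 s. Recombinant CHO lines are dye-loaded (Fluo-3 AM or Calcium 3) with 1 mM probenecid. For antagonist mode, compound is pre-incubated 15 min, or co-applied, then carbachol is added at 3× EC80 per subtype.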

The target of a further assay is T3, M3 muscarinic receptor (Homo sapiens, UniProt P20309).
T3 construct: expressed in transfected cells; host or cells: CHO (M3-CHO)
In words: Functional mobilization of intracellular calcium (FLIPR) in CHO cells expressing M3. As to conditions: for pEC50: CHO cells expressing M3, FLIPR calcium; for Emax: CHO, 100% = maximum response obtained with the Carbachol control, read-out: M3 Efficacy. A digest of the protocol:
as §1

For a further assay, the target named is T4, M1 muscarinic receptor (Homo sapiens, UniProt P11229).
T4 construct: expressed in transfected cells; host or cells: CHO (M1-CHO)
T4 sequence (P11229 1-460): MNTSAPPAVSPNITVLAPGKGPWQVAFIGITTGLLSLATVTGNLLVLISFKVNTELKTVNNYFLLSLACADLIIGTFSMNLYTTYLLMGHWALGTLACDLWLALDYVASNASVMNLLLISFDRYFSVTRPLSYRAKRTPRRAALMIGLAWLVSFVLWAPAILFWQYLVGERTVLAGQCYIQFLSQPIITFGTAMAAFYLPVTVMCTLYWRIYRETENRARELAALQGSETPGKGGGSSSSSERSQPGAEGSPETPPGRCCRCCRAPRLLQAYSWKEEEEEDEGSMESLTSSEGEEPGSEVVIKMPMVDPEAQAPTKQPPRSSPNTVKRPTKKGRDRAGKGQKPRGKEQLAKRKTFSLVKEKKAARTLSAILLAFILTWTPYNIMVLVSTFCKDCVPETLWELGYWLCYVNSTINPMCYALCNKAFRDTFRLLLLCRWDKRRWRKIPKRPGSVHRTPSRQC
In words: Functional mobilization of intracellular calcium (FLIPR) in CHO cells expressing M1. The following applies: for pEC50: CHO cells expressing M1, FLIPR calcium; for Emax: CHO, 100% = maximum response obtained with the Carbachol control, read-out: M1 Efficacy. A digest of the protocol: as §1

T3 sequence (P20309 whole entry): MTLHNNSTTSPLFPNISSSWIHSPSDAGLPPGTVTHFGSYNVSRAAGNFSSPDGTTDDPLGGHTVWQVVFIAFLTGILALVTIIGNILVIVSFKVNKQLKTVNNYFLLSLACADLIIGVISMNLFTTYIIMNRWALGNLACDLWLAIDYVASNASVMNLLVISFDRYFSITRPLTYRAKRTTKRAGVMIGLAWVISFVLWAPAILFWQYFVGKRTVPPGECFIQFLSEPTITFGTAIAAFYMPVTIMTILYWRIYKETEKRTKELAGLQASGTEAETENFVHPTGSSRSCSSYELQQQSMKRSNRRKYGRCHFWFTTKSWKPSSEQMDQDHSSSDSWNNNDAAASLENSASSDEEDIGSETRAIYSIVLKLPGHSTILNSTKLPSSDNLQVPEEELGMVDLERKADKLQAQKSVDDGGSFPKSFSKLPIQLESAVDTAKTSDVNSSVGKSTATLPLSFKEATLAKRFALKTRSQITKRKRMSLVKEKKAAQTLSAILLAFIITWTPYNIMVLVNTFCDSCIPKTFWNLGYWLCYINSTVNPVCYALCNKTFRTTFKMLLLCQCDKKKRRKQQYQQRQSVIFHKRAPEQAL

Turning to `CC(C)(C)CCN1CCC2(CC[C@@H](NC(=O)CC3CCOCC3)c3ccccc32)CC1` [compound 152], the pEC50 was < 5.30 at M2 muscarinic receptor, > 5.70 at M4 muscarinic receptor, < 5.30 at M3 muscarinic receptor and < 5.30 at M1 muscarinic receptor. Further, the Emax at M2 muscarinic receptor was < 25%; at M4 muscarinic receptor it was 25 to 100%; at M3 muscarinic receptor, < 25%; at M1 muscarinic receptor, < 25%.

In the case of `CC(=O)N(C(C)C)[C@H]1CCC2(CCN(CCC(C)(C)C)CC2)c2ccccc21` [compound 154], the pEC50 at M2 muscarinic receptor was < 5.30; at M4 muscarinic receptor it was > 5.70; at M3 muscarinic receptor, < 5.30; on M1 muscarinic receptor it was > 5.70. Moreover, the Emax on M2 muscarinic receptor was < 25%; on M4 muscarinic receptor, 25 to 100%; at M3 muscarinic receptor, < 25%; on M1 muscarinic receptor, 25 to 100%.

As to `CCC(=O)N[C@H]1CCC2(CCN(CCC(C)(C)C)CC2)c2ccccc21` [compound 156], the pEC50 was > 5.70 at M2 muscarinic receptor, > 5.70 at M4 muscarinic receptor, < 5.30 at M3 muscarinic receptor and > 5.70 at M1 muscarinic receptor. The Emax at M2 muscarinic receptor was 25 to 100%; at M4 muscarinic receptor, 25 to 100%; at M3 muscarinic receptor, < 25%; at M1 muscarinic receptor it was 25 to 100%.

As to `C[C@H](C(=O)N[C@@H]1CCC2(CCN(CCC(C)(C)C)CC2)c2ccccc21)N1CCCC1=O` [compound 157], the pEC50 was > 5.70 at M2 muscarinic receptor, > 5.70 on M4 muscarinic receptor, < 5.30 at M3 muscarinic receptor and 5.30 to 5.70 at M1 muscarinic receptor. For the same molecule, the Emax on M2 muscarinic receptor was < 25%; on M4 muscarinic receptor, 25 to 100%; at M3 muscarinic receptor, < 25%; at M1 muscarinic receptor it was 25 to 100%.

Turning to `CC(C)(C)CCN1CCC2(CC[C@H](NC(=O)C3CC3)c3ccccc32)CC1` [compound 158], the pEC50 at M2 muscarinic receptor was > 5.70; at M4 muscarinic receptor, > 5.70; on M3 muscarinic receptor, < 5.30; at M1 muscarinic receptor it was > 5.70. Moreover, the Emax was 25 to 100% at M2 muscarinic receptor, 25 to 100% on M4 muscarinic receptor, < 25% on M3 muscarinic receptor and 25 to 100% at M1 muscarinic receptor.

As to `CC(=O)N[C@H]1CCC2(CCN(CCC(C)C)CC2)c2ccccc21` [compound 159], the pEC50 at M2 muscarinic receptor is < 5.30; on M4 muscarinic receptor, > 5.70; on M3 muscarinic receptor, < 5.30; at M1 muscarinic receptor it was > 5.70. Also, the Emax is < 25% on M2 muscarinic receptor, 25 to 100% at M4 muscarinic receptor, < 25% at M3 muscarinic receptor and 25 to 100% on M1 muscarinic receptor.

On to `CC(=O)N1CCC[C@@H]1C(=O)N[C@H]1CCC2(CCN(CCC(C)(C)C)CC2)c2ccccc21` [compound 160], for which the pEC50 was < 5.30 at M2 muscarinic receptor, > 5.70 at M4 muscarinic receptor, < 5.30 at M3 muscarinic receptor and > 5.70 on M1 muscarinic receptor. For the same molecule, the Emax on M2 muscarinic receptor is < 25%; on M4 muscarinic receptor, 25 to 100%; on M3 muscarinic receptor, < 25%; on M1 muscarinic receptor, 25 to 100%.

As to `CN([C@H]1CCC2(CCN(CCC(C)(C)C)CC2)c2ccccc21)S(C)(=O)=O` [compound 161], the pEC50 at M2 muscarinic receptor is < 5.30; at M4 muscarinic receptor, > 5.70; on M3 muscarinic receptor, < 5.30; on M1 muscarinic receptor, > 5.70. The Emax on M2 muscarinic receptor was < 25%; on M4 muscarinic receptor, 25 to 100%; on M3 muscarinic receptor, < 25%; on M1 muscarinic receptor, 25 to 100%.

`CC(=O)N[C@H](C)C(=O)N[C@@H]1CCC2(CCN(CCC(C)(C)C)CC2)c2ccccc21` [compound 162]: the pEC50 at M2 muscarinic receptor was < 5.30; on M4 muscarinic receptor, > 5.70; at M3 muscarinic receptor it was < 5.30; at M1 muscarinic receptor, < 5.30. For the same molecule, the Emax on M2 muscarinic receptor is < 25%; at M4 muscarinic receptor, 25 to 100%; on M3 muscarinic receptor, < 25%; at M1 muscarinic receptor, 25 to 100%.

On to `CC(=O)N[C@H](C)C(=O)N[C@@H]1CCC2(CCN(CCC(C)(C)C)CC2)c2cc(F)ccc21` [compound 163], for which the pEC50 was > 5.70 at M2 muscarinic receptor, > 5.70 on M4 muscarinic receptor, < 5.30 at M3 muscarinic receptor and > 5.70 on M1 muscarinic receptor. In addition, the Emax on M2 muscarinic receptor was 25 to 100%; on M4 muscarinic receptor, 25 to 100%; at M3 muscarinic receptor, < 25%; at M1 muscarinic receptor, 25 to 100%.

In the case of `CCC(=O)N(C)[C@H]1CCC2(CCN(CCC(C)(C)C)CC2)c2ccccc21` [compound 164], the pEC50 on M2 muscarinic receptor was < 5.30; at M4 muscarinic receptor, > 5.70; at M3 muscarinic receptor, < 5.30; at M1 muscarinic receptor, > 5.70. Also, the Emax is < 25% at M2 muscarinic receptor, 25 to 100% on M4 muscarinic receptor, < 25% at M3 muscarinic receptor and 25 to 100% on M1 muscarinic receptor.

For `Cn1cnc(C(=O)N[C@H]2CCC3(CCN(CCC(C)(C)C)CC3)c3cc(F)ccc32)c1` [compound 165], the pEC50 at M2 muscarinic receptor was > 5.70; at M4 muscarinic receptor, > 5.70; at M3 muscarinic receptor, < 5.30; at M1 muscarinic receptor, > 5.70. Also, the Emax is 25 to 100% on M2 muscarinic receptor, 25 to 100% on M4 muscarinic receptor, < 25% at M3 muscarinic receptor and 25 to 100% on M1 muscarinic receptor.

Take `CCN(C(=O)C1CCN(C(=O)OC)CC1)[C@H]1CCC2(CCN(CCC(C)(C)C)CC2)c2ccccc21` [compound 166]: the pEC50 at M2 muscarinic receptor is < 5.30; on M4 muscarinic receptor, > 5.70; at M3 muscarinic receptor, < 5.30; at M1 muscarinic receptor, < 5.30. For the same molecule, the Emax on M2 muscarinic receptor was < 25%; on M4 muscarinic receptor, 25 to 100%; on M3 muscarinic receptor, < 25%; on M1 muscarinic receptor, 25 to 100%.

As to `CC(C)[C@@H](C(=O)N[C@H]1CCC2(CCN(CCC(C)(C)C)CC2)c2ccccc21)N1CCCC1=O` [compound 167], the pEC50 at M2 muscarinic receptor was < 5.30; at M4 muscarinic receptor, > 5.70; at M3 muscarinic receptor, < 5.30; at M1 muscarinic receptor it was > 5.70. Also, the Emax is < 25% on M2 muscarinic receptor, 25 to 100% on M4 muscarinic receptor, < 25% on M3 muscarinic receptor and 25 to 100% at M1 muscarinic receptor.

`CC(C)(C)CCN1CCC2(CC[C@@H](N3CCCC3=O)c3ccc(F)cc32)CC1` [compound 168]: the pEC50 was < 5.30 on M2 muscarinic receptor, > 5.70 on M4 muscarinic receptor, < 5.30 on M3 muscarinic receptor and 5.30 to 5.70 on M1 muscarinic receptor. Moreover, the Emax is < 25% on M2 muscarinic receptor, 25 to 100% at M4 muscarinic receptor, < 25% on M3 muscarinic receptor and < 25% on M1 muscarinic receptor.

Regarding `CC(C)(C)CCN1CCC2(CC[C@@H](NC(=O)CN3CCCCCC3=O)c3ccccc32)CC1` [compound 169], the pEC50 was > 5.70 on M2 muscarinic receptor, > 5.70 at M4 muscarinic receptor, < 5.30 on M3 muscarinic receptor and > 5.70 at M1 muscarinic receptor. Besides, the Emax is < 25% on M2 muscarinic receptor, 25 to 100% at M4 muscarinic receptor, < 25% on M3 muscarinic receptor and 25 to 100% on M1 muscarinic receptor.

As to `CCN(C(=O)C1CCOCC1)[C@H]1CCC2(CCN(CCC(C)(C)C)CC2)c2ccccc21` [compound 170], the pEC50 is < 5.30 at M2 muscarinic receptor, > 5.70 at M4 muscarinic receptor, < 5.30 on M3 muscarinic receptor and < 5.30 on M1 muscarinic receptor. The Emax at M2 muscarinic receptor was < 25%; at M4 muscarinic receptor, 25 to 100%; on M3 muscarinic receptor, < 25%; on M1 muscarinic receptor, < 25%.
